The structures appear in SMILES notation.

Results on 23 compounds are retold here after patent US10913727B2, “Modulators of the integrated stress pathway” (Calico Life Sciences LLC, priority 2016, dated 2021).

The subject of this assay is HEK293T cells carrying the ATF4 luciferase reporter. The experiment in a line: ATF4-Luc assay, in vitro model of Vanishing Cell White Matter Disease (VWMD). The class given is cell-based. The settings on record: Homo sapiens, HEK-293T, 1 μg/mL tunicamycin, 7 hours, One Glo luminescence. The gist of the method: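 Compound at 200 nM and tunicamycin at 1 μg/mL were given together for 7 h to HEK293T cells stably transduced with an ATF4 5′-UTR-driven firefly luciferase reporter. Read-out by luminescence, reported as EC50.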
Take `Cc1nc(C(=O)NC23CCC(NC(=O)COc4ccc(Cl)c(Cl)c4)(CC2)[C@@H](O)C3)n[nH]1` [Compound 702, N-{(3S)-4-[2-(3,4-dichlorophenoxy)acetamido]-3-hydroxybicyclo[2.2.2]octan-1-yl}-5-methyl-1H-1,2,4-triazole-3-carboxamide]: the EC50 is < 50 nM.
As for `O=C(COc1ccc(Cl)c(F)c1)NC12CCC(NC(=O)c3cnccn3)(CC1)[C@@H](O)C2` [Compound 732, N-{(2S)-4-[2-(4-chloro-3-fluorophenoxy)acetamido]-2-hydroxybicyclo[2.2.2]octan-1-yl}pyrazine-2-carboxamide], the figure is 250 to 1000 nM; as for `Cc1nn(C)c2ncnc(NC34CC(NC(=O)COc5ccc(Cl)c(F)c5)(C3)C4)c12` [Compound 435, 2-(4-chloro-3-fluorophenoxy)-N-{3-[(1,3-dimethyl-1H-pyrazolo[3,4-d]pyrimidin-4-yl)amino]bicyclo[1.1.1]pentan-1-yl}acetamide], > 2000 nM.
Then `O=C(COc1ccc(Cl)c(F)c1)NC12CCC(NC(=O)c3ccc(OC(F)F)cn3)(C1)C2` [Compound 337, N-{4-[2-(4-chloro-3-fluorophenoxy)acetamido]bicyclo[2.1.1]hexan-1-yl}-5-(difluoromethoxy)pyridine-2-carboxamide], with 250 to 1000 nM.
Then `O=C(COc1ccc(Cl)c(F)c1)NC12CCC(NC(=O)c3cccc(F)c3)(CC1)[C@@H](O)C2` [Compound 488, N-{(2S)-4-[2-(4-chloro-3-fluorophenoxy)acetamido]-2-hydroxybicyclo[2.2.2]octan-1-yl}-3-fluorobenzamide], with 50 to 250 nM.
Take `CCn1cc(C(=O)NC23CC(NC(=O)COc4ccc(Cl)c(F)c4)(C2)C3)cn1` [Compound 252, N-{3-[2-(4-chloro-3-fluorophenoxy)acetamido]bicyclo[1.1.1]pentan-1-yl}-1-ethyl-1H-pyrazole-4-carboxamide]: the EC50 is 250 to 1000 nM.
Regarding `O=C(COc1ccc(Cl)c(F)c1)NC12CCC(NC(=O)c3ccccn3)(CC1)C(O)C2` (centres unmarked) [Compound 167, N-{4-[2-(4-chloro-3-fluorophenoxy)acetamido]-2-hydroxybicyclo[2.2.2]octan-1-yl}pyridine-2-carboxamide], the EC50 was in the range of 50 to 250 nM.
In the case of `CC(=O)Nc1c(C)nn(C)c1C(=O)NC12CCC(NC(=O)COc3ccc(Cl)c(F)c3)(CC1)C(O)C2` (centres unmarked) [Compound 505, 4-acetamido-N-{4-[2-(4-chloro-3-fluorophenoxy)acetamido]-3-hydroxybicyclo[2.2.2]octan-1-yl}-1,3-dimethyl-1H-pyrazole-5-carboxamide], the EC50 is > 2000 nM.
Then `O=C(COc1ccc(Cl)c(F)c1)NC12CCC(NC(=O)c3ccc4cc(F)ccc4n3)(CC1)[C@@H](O)C2` [Compound 930, N-{(2S)-4-[2-(4-chloro-3-fluorophenoxy)acetamido]-2-hydroxybicyclo[2.2.2]octan-1-yl}-6-fluoroquinoline-2-carboxamide], with < 50 nM; and `Cc1cncc(NC23CC(NC(=O)COc4ccc(Cl)c(F)c4)(C2)C3)n1` [Compound 688, 2-(4-chloro-3-fluorophenoxy)-N-{3-[(6-methylpyrazin-2-yl)amino]bicyclo[1.1.1]pentan-1-yl}acetamide], with > 2000 nM; and `Cn1nc(C2CC2)cc1C(=O)NC12CC(NC(=O)COc3ccc(Cl)c(F)c3)(C1)C2` [Compound 329, N-{3-[2-(4-chloro-3-fluorophenoxy)acetamido]bicyclo[1.1.1]pentan-1-yl}-3-cyclopropyl-1-methyl-1H-pyrazole-5-carboxamide], with 50 to 250 nM.
Then `NCc1ccnc(C(=O)NC23CC(NC(=O)COc4ccc(Cl)c(Cl)c4)(C2)C3)c1` [Compound 615, 4-(aminomethyl)-N-{3-[2-(3,4-dichlorophenoxy)acetamido]bicyclo[1.1.1]pentan-1-yl}pyridine-2-carboxamide], with 50 to 250 nM; and `O=C(COc1ccc(Cl)c(F)c1)NC12CCC(NC(=O)c3ccc(CO)cn3)(CC1)C[C@@H]2O` [Compound 753, N-{(3S)-4-[2-(4-chloro-3-fluorophenoxy)acetamido]-3-hydroxybicyclo[2.2.2]octan-1-yl}-5-(hydroxymethyl)pyridine-2-carboxamide], with 250 to 1000 nM.
As for `O=C(COc1ccc(Cl)c(F)c1)NC12CC(NC(=O)c3ncn4ccccc34)(C1)C2` [Compound 782, N-{3-[2-(4-chloro-3-fluorophenoxy)acetamido]bicyclo[1.1.1]pentan-1-yl}imidazo[1,5-a]pyridine-1-carboxamide], the figure is > 2000 nM; as for `Cc1cc2c(NC34CC(NC(=O)COc5ccc(OC(F)(F)F)cc5)(C3)C4)nccn2n1` [Compound 423, N-{3-[(2-methylpyrazolo[1,5-a]pyrazin-4-yl)amino]bicyclo[1.1.1]pentan-1-yl}-2-[4-(trifluoromethoxy)phenoxy]acetamide], 250 to 1000 nM; as for `Cc1ccc(C(=O)NC23CC(NC(=O)COc4ccc(Cl)c(F)c4)(C2)C3)nn1` [Compound 137, N-{3-[2-(4-chloro-3-fluorophenoxy)acetamido]bicyclo[1.1.1]pentan-1-yl}-6-methylpyridazine-3-carboxamide], 1000 to 2000 nM.
In the case of `COc1c(F)cccc1C(=O)NC12CC(NC(=O)COc3ccc(Cl)c(F)c3)(C1)C2` [Compound 547, N-{3-[2-(4-chloro-3-fluorophenoxy)acetamido]bicyclo[1.1.1]pentan-1-yl}-3-fluoro-2-methoxybenzamide], the EC50 is 1000 to 2000 nM.
As for `CN(C)c1ccc(C(=O)NC23CC(NC(=O)COc4ccc(Cl)c(F)c4)(C2)C3)cc1` [Compound 536, N-{3-[2-(4-chloro-3-fluorophenoxy)acetamido]bicyclo[1.1.1]pentan-1-yl}-4-(dimethylamino)benzamide], the figure is 250 to 1000 nM; as for `N#Cc1ccc(C(=O)NC23CCC(NC(=O)COc4ccc(Cl)c(F)c4)(CC2)CC3O)nc1` (centres unmarked) [Compound 170, N-{4-[2-(4-chloro-3-fluorophenoxy)acetamido]-2-hydroxybicyclo[2.2.2]octan-1-yl}-5-cyanopyridine-2-carboxamide], 50 to 250 nM; as for `CC(C)(O)/C=C/c1ccnc(C(=O)NC23CC(NC(=O)COc4ccc(Cl)c(F)c4)(C2)C3)c1` [Compound 430, N-{3-[2-(4-chloro-3-fluorophenoxy)acetamido]bicyclo[1.1.1]pentan-1-yl}-4-[(1E)-3-hydroxy-3-methylbut-1-en-1-yl]pyridine-2-carboxamide], > 2000 nM.
As for `O=C(COc1ccc(Cl)c(F)c1)NC12CCC(NC(=O)c3cc(N4CCOCC4)ccn3)(CC1)CC2O` (centres unmarked) [Compound 935, N-{4-[2-(4-chloro-3-fluorophenoxy)acetamido]-3-hydroxybicyclo[2.2.2]octan-1-yl}-4-(morpholin-4-yl)pyridine-2-carboxamide], the figure is > 2000 nM; as for `O=C(COc1ccc(Cl)c(F)c1)NC12CC(NC(=O)c3cccc4nsnc34)(C1)C2` [Compound 803, N-{3-[2-(4-chloro-3-fluorophenoxy)acetamido]bicyclo[1.1.1]pentan-1-yl}-2,1,3-benzothiadiazole-4-carboxamide], > 2000 nM.
Turning to `O=C(COc1ccc(Cl)c(F)c1)NC12CC(NC(=O)c3cccnc3)(C1)C2` [Compound 130, N-{3-[2-(4-chloro-3-fluorophenoxy)acetamido]bicyclo[1.1.1]pentan-1-yl}pyridine-3-carboxamide], the EC50 is 50 to 250 nM.
